Key:
[1] = target: T1, GPR35 (Homo sapiens, UniProt Q9HC97, S294R); assay: Changes in intracellular calcium levels on FLIPR, CHO-K1 cells transiently co-expressing GPR35 and Gα15; type: cell-based; parameters: The resulting fragment (ca. 1 kb) was introduced into vector pAKKO-111; expressed in transfected cells; host or cells: CHO-K1 (ATCC), transient transfection; details: Fluo-3AM, 0.3-10 μM shown for DNQX and ellagic acid (FIG. 1, 2)
Description: (§1) The CHO-K1 cell line (purchased from ATCC) was incubated in HAM F-12 medium (Invitrogen) supplemented with 10% fetal calf serum, unless otherwise indicated. On the day before transfection, the cells were inoculated at 4.5×10^5/10 cm^2 and incubated at 37° C. for 15 hours or more in a CO2 incubator adjusted to 5% CO2 concentration. Using Lipofectamine reagent (Invitrogen), transfection was performed according to modifications of the procedure attached to the reagent. When a 6-well plate was used as the incubator, the transfection was performed as follows. Two tubes each having a 1.5 ml volume were prepared and 100 μl each of Opti-MEM medium (Invitrogen) was dispensed in each tube. Next, 1 μg of the GPR35 expression vector obtained in REFERENCE EXAMPLE 1 and 0.5 μg of Gα15 expression vector (Guthrie cDNA Resource Center) were incorporated into one tube and in another tube, 6 μl of Lipofectamine reagent was charged, which were then mixed together. The mixture was settled for 20 minutes at room temperature. To the solution, 800 μl of Opti-MEM medium was added and the resulting solution mixture for transfection was added to the CHO-K1 cells, which had been previously washed with Opti-MEM medium. The cells were then incubated in a CO2 incubator for 6 hours. After the incubation, the cells were rinsed with PBS (Invitrogen), then detached by 0.05% trypsin-EDTA solution (Invitrogen) and recovered by centrifugal operation. The cells obtained were counted and diluted to 5×10^4 cells per 100 μl of the medium. The dilution was dispensed to a black walled 96-well plate (Costar) at 100 μl per well, followed by incubation overnight in a CO2 incubator. Various test samples were added to the CHO-K1 cells, in which the receptor was transiently expressed, by the transfection procedure described above, whereby changes in intracellular calcium levels were assayed on a FLIPR (Molecular Device).
(§2) To assay the changes in intracellular calcium levels on FLIPR, the following pretreatment was made. First, an assay buffer was prepared to add fluorescence dye Fluo-3AM (DOJIN) to the cells, or to wash the cells immediately before the FLIPR assay. A solution was prepared by adding 20 ml of 1M HEPES (pH 7.4) (DOJIN) to 1000 ml of HBSS (Invitrogen) (hereinafter HBSS/HEPES solution). To the solution, there was added 10 ml of a solution obtained by dissolving 710 mg of Probenecid (Sigma) in 5 ml of 1N NaOH and further adding 5 ml of HBSS/HEPES solution thereto and mixing them. The resulting solution was used as an assay buffer. Next, 50 μg of Fluo-3AM was dissolved in 21 μl of DMSO (DOJIN), and an equal volume of 20% pluronic acid (Molecular Probes) was added to the solution. After mixing them, the mixture was added to 10.6 ml of an assay buffer supplemented with 105 μl of fetal calf serum to give a fluorescence dye solution. After the medium for the transfected CHO-K1 cells was removed, the fluorescence dye solution was immediately dispensed at 100 μl each per well and incubation was carried out in a CO2 incubator for an hour to take up the fluorescence dye into the cells. The incubated cells were washed with the assay buffer described above and set on FLIPR. Test samples to be added to the receptor-expressed CHO-K1 cells were prepared using the assay buffer and simultaneously set on FLIPR.
After the pretreatment described above was made, changes in intracellular calcium levels by the addition of various test samples were assayed on FLIPR.

[2] = target: T1, GPR35; assay: Suppression of forskolin-increased intracellular cAMP levels in human GPR35-expressed CHO cell line; type: cell-based; parameters: The resulting fragment (ca. 1 kb) was introduced into vector pAKKO-111; expressed in transfected cells; details: 2 μM forskolin, 37° C., 30 minutes (FIG. 3)
Description: The human GPR35-expressed CHO cells obtained in REFERENCE EXAMPLE 1 were washed with an assay buffer (HBSS (Gibco/BRL) supplemented with 0.1% bovine serum albumin and 0.2 mM isobutylmethylxanthine), followed by incubation at 37° C. for 30 minutes under conditions of 5% CO2. DNQX and NBQX were diluted with the assay buffer and the dilutions were added to the cells at respective concentrations. Thereafter forskolin was added to become 2 μM. Incubation was performed at 37° C. for 30 minutes under conditions of 5% CO2. The culture supernatant was discarded and the intracellular cAMP level was assayed on a plate reader (EnVision, Perkin Elmer) in accordance with the protocol of cAMP Screen Kit (Applied Biosystems).

[3] = tested on: control CHO-K1 cells; assay: Changes in intracellular calcium levels on FLIPR, control CHO-K1 cells with only expression vector pAKKO-111H; type: cell-based
Description: as §1, §2
After the pretreatment described above was made, changes in intracellular calcium levels by the addition of various test samples were assayed on FLIPR. […]

[4] = tested on: GPR35-GFP fusion protein; assay: Internalization of GPR35-GFP fusion protein expressed on CHO cells (Cellomics ArrayScan, MemCyto Above Threshold); type: cell-based, human; details: CHO cells stably expressing GPR35-GFP; 3 μM, 10 μM and 30 μM
Description: The CHO cell line, in which a protein wherein GFP was fused to the C-terminus of human GPR35 was stably expressed, was established using an expression plasmid for animal cells by publicly known methods. In assaying internalization of the protein, the cells at growth phase were plated at the concentration of 40000 cells/well on a 96-well plate (Packard, View-Plate™-96, Black), and cultured overnight at 37° C. under 5% CO2. First, the cells in the well were washed with assay buffer (HBSS (Gibco/BRL) supplemented with 0.1% bovine serum albumin (BSA)). Then, 100 μl each of the assay buffers containing 3 μM, 10 μM and 30 μM DNQX and NBQX was added to each well, followed by incubation at 37° C. under conditions of 5% CO2. Subsequently, 100 μl/well of a cell fixation solution (4% paraformaldehyde-containing PBS (free of Ca/Mg)) was added to the well, which was allowed to stand at room temperature for 30 minutes. The cell fixation solution was removed. […] The intracellular localization of GPR35-GFP fusion protein was assessed using MemCyto Above Threshold (cell ratio (unit %) over a specific parameter (MemCyto Intensity Ratio) representing the ratio of membrane/cytoplasmic localization of the protein to all cells in the well), which is one of the parameters of the GPCR Signaling Assay Protocol attached to the above system.

T1 sequence (Q9HC97 whole entry S294R, the tested form may be a part): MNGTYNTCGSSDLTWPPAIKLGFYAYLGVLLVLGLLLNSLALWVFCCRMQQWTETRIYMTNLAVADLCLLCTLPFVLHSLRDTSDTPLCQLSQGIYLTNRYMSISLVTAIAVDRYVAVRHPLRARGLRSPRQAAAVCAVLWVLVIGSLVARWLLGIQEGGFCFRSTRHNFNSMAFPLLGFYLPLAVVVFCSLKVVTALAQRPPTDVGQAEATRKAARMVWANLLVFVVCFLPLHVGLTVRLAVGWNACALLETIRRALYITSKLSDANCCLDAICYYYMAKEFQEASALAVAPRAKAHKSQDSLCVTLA

O=C1N=c2cc([N+](=O)[O-])c([N+](=O)[O-])cc2=NC1=O [DNQX, 6,7-dinitroquinoxaline-2,3-dione]
response (increased intracellular calcium levels) [1]: dose-dependently responded (increased intracellular calcium levels) | decrease of intracellular cAMP levels increased by forskolin addition [2]: dose-dependent and specific decrease | response (increased intracellular calcium levels) in control cells [3]: not observed | activity of inducing internalization of the GPR35-GFP protein (decreased MemCyto Above Threshold value) [4]: dose-dependent internalization

NS(=O)(=O)c1cccc2c3c(cc([N+](=O)[O-])c12)=NC(=O)C(=O)N=3 [NBQX, 6-nitro-7-sulfamoylbenzo[f]quinoxaline-2,3-dione]
response (increased intracellular calcium levels) [1]: dose-dependently responded (increased intracellular calcium levels) | decrease of intracellular cAMP levels increased by forskolin addition [2]: dose-dependent and specific decrease | response (increased intracellular calcium levels) in control cells [3]: not observed | activity of inducing internalization of the GPR35-GFP protein (decreased MemCyto Above Threshold value) [4]: dose-dependent internalization
